According to patent US5242945A, “Tetronic and thiotetronic acid derivatives as phospholipase A2 inhibitors” (American Home Products Corporation, priority 1991, dated 1993):
Like-named read-outs stand apart in the source and are kept apart here.

Columns and labels:
5-lipoxygenase (LTC4) = assay: resident murine peritoneal macrophage assay, LTC4; format: cell-based, mouse (Swiss Webster); settings: for IC50: read-out: LTC4 zymosan IC50; for LTC4 AA % Inhibition: arachidonic acid stimulation
Description: (§1) The ability of the compounds of the invention to act as inhibitors of the enzymes 5-lipoxygenase and cyclooxygenase is measured in the resident murine peritoneal macrophage assay.
(§2) Resident peritoneal macrophages are collected from female Swiss Webster mice (49 days old, 20-25 gms, Buckshire) by lavaging with 7-8 ml Hanks Balanced Salt Solution (HBSS) without Ca^++ and Mg^++ (GIBCO). The lavage fluid from several mice is pooled and centrifuged at 4° C. for 10 minutes at 400 xg.
(§3) Residual serum and cellular debris are removed from the monolayers by washing 3× with 2 ml HBSS containing Ca^++ and Mg^++. Macrophages are preincubated for 5 minutes with 1 ml serum-free M199 containing 10 μl dimethyl sulfoxide (DMSO) vehicle or test compound prior to cell activation with zymosan ([…]) or arachidonic acid (AA) (2 μM). After 2 hours, the supernatants are removed and either assayed for LTC4 and PGE2 by radioimmunoassay (RIA) directly or stored at -20° C. In all cases, results are expressed as ng metabolite/4×10^6 cells.
(§4) Raw data (dpm) may be stored directly onto an "Autostart" tape using the HP85 in room C-096. The raw data are converted to ng metabolite/4-10^6cells using the standard curve by a "RIANAL" program (HP85) or a "NONLIN" program (HP9816). Results are then expressed as percent inhibition of zymosan induced, leukotriene or prostaglandin synthesis (control) using the equation: [formula]

cyclooxygenase (PGE2) = assay: resident murine peritoneal macrophage assay, PGE2; format: cell-based, mouse (Swiss Webster); settings: Mus musculus, Peritoneal macrophage; for IC50: read-out: PGE2 zymosan IC50
Description: as §1
as §2, with “xg. The cell pellet is resuspended in Medium 199 (GIBCO) with HEPES buffer containing 100 μg/ml gentamicin. Two ml of the cell suspension (4×10^6 cells) are then plated on 35 mm culture dishes (Nunc).” for “xg.”
A macrophage monolayer is established after a 1-1.5 hour incubation of the cells at 37° C. in an atmosphere of […] and 5% CO2. The monolayers are washed 2× with 2 ml HBDSS, containing Ca^++ and Mg^++ after which 2 ml Medium 199 supplemented with 10% freshly thawed heat-inactivated fetal bovine serum and 100 μg/ml gentamicin is added for an overnight incubation.
as §3, §4

TPA-induced ear edema = assay: 12-o-tetradecanoylphorbol acetate (TPA)-induced murine ear edema assay; format: in vivo, mouse (Swiss Webster); settings: TPA; for ED50: Mus musculus, sc, 4 h, read-out: Subcutaneous ED50; for Subcutaneous % Inhibition at 50 m/kg / ED50: subcutaneous
Description: The ability of the compounds of the invention to inhibit inflammatory responses is examined in the in vivo arachidonic acid (AA)/12-o-tetradecanoylphorbol acetate (TPA)-induced murine ear edema assay.
Swiss Webster female mice (Buckshire), approximately 8 weeks old are placed into plastic boxes in groups of six. Eight groups of mice receive AA topically on the right ear, and another 8 groups receive TPA topically on the right ear. AA and TPA are dissolved in acetone at concentrations of 100 mg/ml and 100 μg/ml respectively. The phlogistics are applied to the right ear by the means of an automatic pipet. Volumes of 10 μl are applied to the inner and outer surfaces of the ear. Each mouse receives either 2 mg/ear AA or 2 μg/ear TPA. The left ear (control) receives acetone delivered in the same manner. Topical and subcutaneous dosing regimens are as follows 1) drugs are given 30 minutes prior to AA treatment and 2) drugs are given 30 minutes after treatment with TPA.
Measurements are taken with Oditest calipers, 0-10 mm with 0.01 graduations. The right and left ears are measured after 1 hr AA-induced inflammation and 4 hours after TPA-induced inflammation.
The difference between right and left ear thickness is calculated and the significance is determined by a one way analysis of variance with Dunnett's comparisons to control (P=0.05). Drug effects are expressed as a percent change from control values: [formula]

[1] = Mus musculus, Peritoneal macrophage, zymosan stimulation
[2] = arachidonic acid stimulation, read-out: PGE2 AA % Inhibition
[3] = zymosan stimulation, read-out: PGE2 zymosan % Inhibition

Structure (SMILES) | IC50 (5-lipoxygenase (LTC4); [1]) | IC50 (cyclooxygenase (PGE2); zymosan stimulation) | Subcutaneous % Inhibition at 50 m/kg (TPA-induced ear edema; on line of vehicle acetone) | Topical % Inhibition at 200 μg (TPA-induced ear edema; vehicle acetone) | Topical % Inhibition at 200 μg (TPA-induced ear edema; vehicle EPW) | inhibition at 0.1 µM (cyclooxygenase (PGE2); zymosan stimulation) | also measured
CCCCCCCCCC(=O)C1=C(O)COC1=O [Example 1, 4-Hydroxy-3-(1-oxodecyl)-2(5H)-furanone] | 2000 nM | 3000 nM | 23% | 31% | – | – | –
CCCCCCCC/C=C\CCCCCCCC(=O)C1=C(O)COC1=O [Example 9, (Z)-4-Hydroxy-3-(1-oxo-9-octadecenyl)-2(5H)-furanone] | 200 nM | 200 nM | 7% | 42% | 56% | – | LTC4 AA % Inhibition (5-lipoxygenase (LTC4); dose 0.3 (unit not given)): 8%; inhibition at 0.3 µM (cyclooxygenase (PGE2); [2]): 4%; Subcutaneous % Inhibition at 50 m/kg (TPA-induced ear edema; on line of vehicle EPW): 28%
CCCCC/C=C\C/C=C\CCCCCCCC(=O)C1=C(O)COC1=O [Example 14, (Z,Z)-4-Hydroxy-3-(1-oxo-9,12-octadecadienyl)-2(5H)-furanone] | – | 4000 nM | 21% | 28% | 51% | – | LTC4 AA % Inhibition (5-lipoxygenase (LTC4); dose 5 (unit not given)): 61%; inhibition at 5 µM (cyclooxygenase (PGE2); arachidonic acid stimulation, 5 μM, read-out: PGE2 AA % Inhibition): 38%; ED50 (TPA-induced ear edema): 118 mg/kg; Subcutaneous % Inhibition at 50 m/kg (TPA-induced ear edema; on line of vehicle EPW): 37%
CC/C=C\C/C=C\C/C=C\CCCCCCCC(=O)C1=C(O)COC1=O [Example 15, (Z,Z,Z)-4-Hydroxy-3-(1-oxo-9,12,15-octadecatrienyl)-2(5H)-furanone] | 450 nM | 350 nM | – | 34% | – | – | –
CCCCCCCCCCC/C=C\CCCCC(=O)C1=C(O)COC1=O [Example 18, (Z)-4-Hydroxy-3-(1-oxo-6-octadecenyl)-2(5H)-furanone] | 160 nM | 140 nM | 37% | 1% | 53% | – | LTC4 AA % Inhibition (5-lipoxygenase (LTC4); dose 0.3 (unit not given)): -6%; inhibition at 0.3 µM (cyclooxygenase (PGE2); [2]): -17%; Subcutaneous % Inhibition at 50 m/kg (TPA-induced ear edema; on line of vehicle EPW): 28%
CCCC/C=C\CCCCCCCC(=O)C1=C(O)COC1=O [Example 25, 4-Hydroxy-3-((Z)-1-oxo-9-tetradecenyl)-2(5H)-furanone] | 250 nM | 200 nM | 64% | 30% | – | – | LTC4 AA % Inhibition (5-lipoxygenase (LTC4); dose 0.6 (unit not given)): -4%; Topical % Inhibition at 200 μg (TPA-induced ear edema; vehicle not given): 86%
CCCC/C=C\CCCCCCCC(=O)C1=C(O)CSC1=O [Example 48, 4-Hydroxy-3-[(Z)-1-oxo-9-tetra-decenyl]-2(5H)-thiophenone] | – | – | – | – | – | 71.8% | inhibition at 0.1 µM (5-lipoxygenase (LTC4); [1]): 25.3%; inhibition at 1 µM (5-lipoxygenase (LTC4); Mus musculus, Peritoneal macrophage, zymosan stimulation, 1.0 μM): 77.1%; LTC4 AA % Inhibition (5-lipoxygenase (LTC4); dose 0.3 (unit not given)): -5%; inhibition at 0.3 µM (cyclooxygenase (PGE2); [2]): -16%; inhibition at 0.03 µM (cyclooxygenase (PGE2); zymosan stimulation, 0.03 μM): 25.4%; Subcutaneous % Inhibition at 50 m/kg (TPA-induced ear edema; no vehicle on line): 58%
CCCCC/C=C\C/C=C\C/C=C\CCCCC(=O)C1=C(O)CSC1=O [Example 50, 4-Hydroxy-3-[(Z,Z,Z)-1-oxo-6,9,12-octadecatrienyl]-2(5H)-thiophenone] | – | – | – | – | – | 21.6% | inhibition at 0.1 µM (5-lipoxygenase (LTC4); [1]): 38.8%; inhibition at 0.5 µM (5-lipoxygenase (LTC4); [1]): 48.1%; LTC4 AA % Inhibition (5-lipoxygenase (LTC4); dose 0.5 (unit not given)): -33%; inhibition at 0.5 µM (cyclooxygenase (PGE2); [2]): -35%; inhibition at 0.5 µM (cyclooxygenase (PGE2); [3]): 70.1%; ED50 (TPA-induced ear edema): 19 mg/kg; Subcutaneous % Inhibition at 50 m/kg (TPA-induced ear edema; no vehicle on line): 78%
CCCCCCCCCCC/C=C\CCCCC(=O)C1=C(O)CSC1=O [Example 51, 4-Hydroxy-3-[(Z)-1-oxo-6-octadecenyl]-2(5H)-thiophenone] | – | – | – | – | – | 0.5% | inhibition at 0.1 µM (5-lipoxygenase (LTC4); [1]): 21.1%; inhibition at 0.5 µM (5-lipoxygenase (LTC4); [1]): 59.4%; LTC4 AA % Inhibition (5-lipoxygenase (LTC4); dose 0.5 (unit not given)): -4%; inhibition at 0.5 µM (cyclooxygenase (PGE2); [3]): 91.3%; Subcutaneous % Inhibition at 50 m/kg (TPA-induced ear edema; no vehicle on line): 76%; Topical % Inhibition at 200 μg (TPA-induced ear edema; vehicle not given): 55%

Continued, in another order:

IC50 (5-lipoxygenase (LTC4); [1]) | IC50 (cyclooxygenase (PGE2); zymosan stimulation) | Structure (SMILES) | Subcutaneous % Inhibition at 50 m/kg (TPA-induced ear edema; on line of vehicle acetone) | Topical % Inhibition at 200 μg (TPA-induced ear edema; vehicle acetone) | Topical % Inhibition at 200 μg (TPA-induced ear edema; vehicle EPW) | inhibition at 0.1 µM (cyclooxygenase (PGE2); zymosan stimulation) | also measured
700 nM | 700 nM | CCCCC/C=C\C/C=C\C/C=C\CCCCC(=O)C1=C(O)COC1=O [Example 20, (Z,Z,Z)-4-Hydroxy-3-(1-oxo-6,9,12-octadecatrienyl)-2(5H)-furanone] | 76% | 80% | 81% | – | LTC4 AA % Inhibition (5-lipoxygenase (LTC4); dose 1.0 (unit not given)): -51%; inhibition at 1 µM (cyclooxygenase (PGE2); arachidonic acid stimulation, 1.0 μM, read-out: PGE2 AA % Inhibition): 1%; ED50 (TPA-induced ear edema): 31 mg/kg
200 nM | 200 nM | CCCCCC1CC1CC1CC1CCCCCCCC(=O)C1=C(O)COC1=O (centres unmarked) [Example 22, 4-Hydroxy-3-[1-oxo-8-[2-[(2-pentylcyclopropyl)methyl]cyclopropyl]octyl]-2(5H)-furanone] | 36% | 40% | – | – | –
300 nM | 150 nM | O=C(CCCCCCC/C=C\c1ccc(Cl)cc1)C1=C(O)COC1=O [Example 35, 3-[(Z)-10-(4-chlorophenyl)-1-oxo-9-decenyl]-4-hydroxy-2(5H)-furanone] | – | 39% | – | – | –
300 nM | 100 nM | CCCCC/C=C\C/C=C\CCCCCCCC(=O)C1=C(O)CSC1=O [Example 46, 4-Hydroxy-3[(Z,Z)-1-oxo-9,12-octadecadienyl]-2(5H)-thiophenone] | 73% | 41% | 82% | 51.9% | LTC4 AA % Inhibition (5-lipoxygenase (LTC4); dose 0.5 (unit not given)): -9%; inhibition at 0.5 µM (cyclooxygenase (PGE2); [2]): 5%; ED50 (TPA-induced ear edema): 46 mg/kg
100 nM | 100 nM | CCCCCCCC/C=C\CCCCCCCC(=O)C1=C(O)CSC1=O [Example 47, 4-Hydroxy-3-[(Z)-1-oxo-9-octadecenyl]-2(5H)-thiophenone] | 77% | 74% | 69% | 48.4% | inhibition at 0.1 µM (5-lipoxygenase (LTC4); [1]): 46.2%; LTC4 AA % Inhibition (5-lipoxygenase (LTC4); dose 0.3 (unit not given)): 9%; inhibition at 0.3 µM (cyclooxygenase (PGE2); [2]): -26%
